Test system: 252836-082-R-J2-PDC tumor spheroids, viability
Assay: Anticancer human tumor 252836-082-R-J2-PDC patient-derived head and neck squamous cell carcinoma cell line growth inhibition [PI3K]
Conditions: spheroids with HUVEC and MSC; for IC50: curve of first compound; for viability, T/C: stronger effect = lower value; active means viability on the fitted dose curve at most 10% of control; inactive means the rest
Source text: Combinatorial screen of targeted agents with the PI3K inhibitors inavolisib, alpelisib, duvelisib, and copanlisib in multi-cell type tumor spheroids
A high-throughput screen of multi-cell type tumor spheroids was designed to identify active combinations of targeted small molecules and PI3K pathway inhibitors. Complex spheroids include a stromal component modeled by human endothelial cells (HUVEC) and fibroblasts modeled by human mesenchymal stem cells (MSCs). The concentration ranges selected for each drug and investigational agent were based upon clinically achievable concentrations if the clinical Cmax of the agent was known.
Compounds. The drugs and investigational agents: inavolisib (NSC800729), alpelisib (NSC765974), duvelisib (NSC772469), copanlisib (NSC816437), ipatasertib (NSC767898), afuresertib (NSC778305), talazoparib (NSC767125), sapanisertib (NSC764658), selumetinib (NSC741078), tovorafenib (DAY101, NSC766906), vemurafenib (NSC761431), ravoxertinib (NSC781343), sotorasib (NSC818433), MRTX1133 (NSC 836407), abemaciclib (NSC 768073), palbociclib (NSC758247), venetoclax (NSC 766270), SY5609 (NSC837396), enzalutamide (NSC755605), and darolutamide (NSC825331), were obtained from the National Cancer Institute (NCI) Developmental Therapeutics Program Chemical Repository. The FDA-approved anticancer drug set is available from the NCI Developmental Therapeutics Program. […] The stock solutions were prepared in dimethyl sulfoxide (DMSO, Sigma-Aldrich, St. Louis, MO, cat. D2650) at 800-fold the tested concentration and stored at -70 degrees C prior to their use. All drugs and investigational agents were tested over a range starting from a high concentration at or near the clinical Cmax and decreasing in half-log increments. If the clinical Cmax for an agent had not been determined, the highest concentration tested was 10 microM.
Cell Culture. All cells were maintained in an incubator at 37 degrees C and 5% CO2 with 95% humidity. The PDC lines were cultured according to standard operating procedures established by the NCI PDMR (https://pdmr.cancer.gov/sops/default.htm). All PDCs were thawed and cultured in Matrigel-coated flasks prepared with a working solution of 1X Ham's F-12 nutrient mix, without supplementation (Invitrogen, Waltham, MA, cat. 11765054), 100 U/mL penicillin-streptomycin (Invitrogen, cat. 15140122), and 2.5% Matrigel (Corning Inc., Corning, NY, cat. 354248) for the first three passages. The 354836-022-R-J1-PDC, 475296-252-R-J1-PDC, and 997726-040-R-J2-PDC lines were cultured in 6A media, which includes advanced DMEM/F-12 (Thermo Fisher Scientific, cat. 12634028), 10 mM HEPES (Thermo Fisher Scientific, cat. 15630080), 1X GlutaMAX supplement (Thermo Fisher Scientific, cat. 35050061), 0.1 mg/mL primocin (InvivoGen, San Diego, CA, cat. ant-pm-2), 10% defined fetal bovine serum, heat inactivated (HyClone Laboratories Inc., Logan, UT, cat. SH30070.03HI), 50% L-WRN conditioned media (ATCC, cat. CRL-3276), 1.25 mM N-Acetyl-L-cysteine (Sigma-Aldrich, cat. A9165), 10 mM nicotinamide (Sigma-Aldrich, cat. N0636), 1X B-27 supplement (Thermo Fisher Scientific, cat. 17504044), 1X N-2 supplement (Thermo Fisher Scientific, cat. 17502048), and 10 microM Y-27632 dihydrochloride (Tocris Bioscience, Bristol, United Kingdom, cat. 1254). The 624824-186-R-J2-PDC line was cultured in 6C/Colon 1B media, which includes all 6A media components plus 50 ng/mL human EGF recombinant protein (Thermo Fisher Scientific, cat. PHG0311). […]
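Further: spheroids exposed to agents for seven days before readout.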
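Wherever viability, T/C is given: percent of vehicle DMSO control viability so 100% = untreated growth.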

CC(Cn1ccc(-c2ccc(C#N)c(Cl)c2)n1)NC(=O)c1cc(C(C)O)[nH]n1 (configuration not stated) + CC(Nc1ccc2c(c1)OCCn1cc(N3C(=O)OCC3C(F)F)nc1-2)C(N)=O
> 10 µM: IC50 (second compound 0.00316 µM) | IC50 (second compound 0.01 µM) | IC50 (second compound 0.0316 µM) | IC50 (second compound 0.1 µM) | IC50 (second compound 0.316 µM)
< 0.0316 µM: IC50 (second compound 1 µM)
inactive: viability, T/C (second compound 0.00316 µM, first compound 0.0316 µM) 94.1% | viability, T/C (second compound 0.00316 µM, first compound 0.1 µM) 88.5% | viability, T/C (second compound 0.00316 µM, first compound 0.316 µM) 97.6% | viability, T/C (second compound 0.00316 µM, first compound 1 µM) 94.7% | viability, T/C (second compound 0.00316 µM, first compound 3.16 µM) 98.7% | viability, T/C (second compound 0.00316 µM, first compound 10 µM) 90.6% | viability, T/C (second compound 0.01 µM, first compound 0.0316 µM) 102% | viability, T/C (second compound 0.01 µM, first compound 0.1 µM) 87.6% | viability, T/C (second compound 0.01 µM, first compound 0.316 µM) 87.6% | viability, T/C (second compound 0.01 µM, first compound 1 µM) 106% | viability, T/C (second compound 0.01 µM, first compound 3.16 µM) 90.7% | viability, T/C (second compound 0.01 µM, first compound 10 µM) 88.8% | viability, T/C (second compound 0.0316 µM, first compound 0.0316 µM) 78.4% | viability, T/C (second compound 0.0316 µM, first compound 0.1 µM) 82.8% | viability, T/C (second compound 0.0316 µM, first compound 0.316 µM) 86.1% | viability, T/C (second compound 0.0316 µM, first compound 1 µM) 74.8% | viability, T/C (second compound 0.0316 µM, first compound 3.16 µM) 78.3% | viability, T/C (second compound 0.0316 µM, first compound 10 µM) 87.9% | viability, T/C (second compound 0.1 µM, first compound 0.0316 µM) 62.1% | viability, T/C (second compound 0.1 µM, first compound 0.1 µM) 63.4% | viability, T/C (second compound 0.1 µM, first compound 0.316 µM) 68.1% | viability, T/C (second compound 0.1 µM, first compound 1 µM) 66.1% | viability, T/C (second compound 0.1 µM, first compound 3.16 µM) 66.1% | viability, T/C (second compound 0.1 µM, first compound 10 µM) 65.8% | viability, T/C (second compound 0.316 µM, first compound 0.0316 µM) 57.7% | viability, T/C (second compound 0.316 µM, first compound 0.1 µM) 57.8% | viability, T/C (second compound 0.316 µM, first compound 0.316 µM) 56.1% | viability, T/C (second compound 0.316 µM, first compound 1 µM) 56.8% | viability, T/C (second compound 0.316 µM, first compound 3.16 µM) 56.8% | viability, T/C (second compound 0.316 µM, first compound 10 µM) 46.5% | viability, T/C (second compound 1 µM, first compound 0.0316 µM) 50.2% | viability, T/C (second compound 1 µM, first compound 0.1 µM) 47.3% | viability, T/C (second compound 1 µM, first compound 0.316 µM) 46.8% | viability, T/C (second compound 1 µM, first compound 1 µM) 45.3% | viability, T/C (second compound 1 µM, first compound 3.16 µM) 49.9% | viability, T/C (second compound 1 µM, first compound 10 µM) 47.3%
